For one test, the species on record is Rattus norvegicus. Briefly: Effective dose for antifertility activity in rats. Format: functional.
Test [1] concerns the target Estrogen receptor (Rattus norvegicus) (UniProt P06211+Q62986). Description: Estrogenic activity in uterotrophic assay in rats on oral administration relative to diethylstilbestrol. It is filed as functional, organism-based.

The compound `Oc1ccc2c(c1)CCC1C2C2CCc3cc(O)ccc3C12` (configuration not stated) gave an ED100 in the test filed under Rattus norvegicus of 100 µg/day/kg. In test [1], this compound registered a Potency of 16%.

Source of the values: ChEMBL document CHEMBL1121373, “Synthesis and antifertility activity of 3,9-dihydroxy-5,6,6a alpha,6b beta,11,12,12a beta,12b alpha-octahydrodibenzo[a,g]biphenylene, a structural relative of diethylstilbestrol” (1980).
